Results reported in US11833129B2, “Thiophene compound for treatment of exfoliating glaucoma” (Avoscience, LLC, priority 2013, dated 2023).

Tests used:
[1] = system: Staphylococcus aureus Rosenbach; settings: cited from earlier work
[2] = system: Bacillus subtilis (Ehrenberg) Cohn; settings: cited from earlier work
[3] = system: MDA-MB231 invasive breast tumor cells; assay: Membrane Invasion Culture System (MICS) chamber tumor cell migration; assay type: cell-based, human; settings: 5 or 10 μl/10 ml Formula I(n), 24 hours, vs untreated and methanol controls
Procedure: FIG. 1A is graph of cell migration using the breast cancer cell line MDA-MB231 for cells treated with 0 μl/10 ml, 5 μl/10 ml and 10 μl/10 ml Formula I(n). The effect of Formula I(n) on the migration of MDA-MB231 invasive breast tumor cells was tested using the Membrane Invasion Culture System (MICS) chamber. The Membrane Invasion Culture System (MICS) chamber was assembled with Crosstex 10 μm polycarbonate membrane pre-soaked in gelatin for 12 hours. The lower wells were fully loaded with DMEM supplemented with 10% FBS and 0, 5, 10 μl/10 ml Formula I(n) diluted in 0-20 μl/10 ml methanol. The upper wells were loaded with 1 ml serum-free phenol-red-free media and corresponding Formula I(n)/methanol solution. 100,000 cells/well were loaded and the chamber was incubated at 37° C. for 24 hours. […] The membrane was rinsed in water, placed onto a microscope slide pre-treated with immersion oil, covered with a coverslip and cells were counted under a light microscope. Each sample was measured in triplicate. […]
The Membrane Invasion Culture System (MICS) chamber was assembled with Crosstex 10 μm polycarbonate membrane pre-soaked in gelatin for 12 hours. […] The membrane was rinsed in water, placed onto a microscope slide pre-treated with immersion oil, covered with a coverslip and cells were counted under a light microscope. Each sample was measured in triplicate.

[4] = system: MDA-MB231 breast cancer cells; assay: cytoskeletal reorganization and cell density, phalloidin/propidium iodide staining; assay type: cell-based, human; settings: 24 hours
Procedure: FIG. 4A is a micrograph of preconfluent neonatal foreskin fibroblast cells that have not been treated with Formula I(n). After 24 hours of mock treatment, cells were stained with phalloidin (actin-green) and propidium iodide (nuclei-red). FIG. 4B is a micrograph of preconfluent neonatal foreskin fibroblast cells that have been treated with 5 μl/10 ml Formula I(n). After 24 hours of treatment, cells were stained with phalloidin (actin-green) and propidium iodide (nuclei-red). FIG. 4C is a micrograph of preconfluent neonatal foreskin fibroblast cells that have been treated with 10 μl/10 ml Formula I(n). After 24 hours of treatment, cells were stained with phalloidin (actin-green) and propidium iodide (nuclei-red). FIG. 4D is a micrograph of confluent MDA-MB231 breast cancer cells that have not been treated with Formula I(n). After 24 hours of mock treatment, cells were stained with phalloidin (actin-green) and propidium iodide (nuclei-red). FIG. 4E is a micrograph of confluent MDA-MB231 breast cancer cells that have been treated with 5 μl/10 ml Formula I(n). After 24 hours of treatment, cells were stained with phalloidin (actin-green) and propidium iodide (nuclei-red). FIG. 4F is a micrograph of confluent MDA-MB231 breast cancer cells that have been treated with 10 μl/10 ml Formula I(n). […]

[5] = system: Hs578T invasive breast tumor cells; assay: Membrane Invasion Culture System (MICS) chamber tumor cell migration; assay type: cell-based, human; settings: 5 or 10 μl/10 ml Formula I(n), 24 hours, vs untreated and methanol controls
[6] = system: foreskin fibroblasts (Clonetics); assay: in vitro scratch assay, fibroblast migration; assay type: cell-based
Procedure: FIG. 2A is a micrograph of an in vitro scratch assay using fibroblasts showing the migration of fibroblasts at 0 hours without treatment of Formula I(n). Confluent cultures of foreskin fibroblasts (Clonetics) were scratched with the tip of a 200 μl pipet tip, rinsed once with PBS and media was changed to serum free media containing 0 μl/10 ml Formula I(n). Pictures were taken at the indicated time (0, 12, or 24 hours) following scratching and the distance between the migrating lips were measured in pixels. FIG. 2B is a micrograph of an in vitro scratch assay using fibroblasts showing the migration of fibroblasts at 0 hours upon treatment with 5 μl/10 ml Formula I(n). […]
FIG. 3 is a graph of the distance between the migrating lips (as measured in pixels) vs. the time (hours) after administration of Formula I(n). […]
Confluent cultures of foreskin fibroblasts (Clonetics) were scratched with the tip of a 200 μl pipet tip, rinsed once with PBS and media was changed to serum free media containing 0 (FIG. 2A, 2D, 2G) 5 (FIG. 2B, 2E, 2H) or 10 (FIG. 2C, 2F) μl/10 ml Formula I(n). Pictures were taken at 0 (FIG. 2A, 2B, 2C), 12 (FIG. 2D, 2E, 2F) or 24 (FIG. 2G, 2H) hours following scratching and the distance between the migrating lips were measured in pixels. FIG. 3 is a graph of the distance between the migrating lips (as measured in pixels) vs. the time (hours) after administration of Formula I(n).

[7] = system: preconfluent neonatal foreskin fibroblast cells; assay: cytoskeletal reorganization, phalloidin/propidium iodide staining; assay type: cell-based; settings: pre-confluent fibroblasts; 5 or 10 μl Formula I(n); 24 hours; compared to controls
Procedure: FIG. 4A is a micrograph of preconfluent neonatal foreskin fibroblast cells that have not been treated with Formula I(n). After 24 hours of mock treatment, cells were stained with phalloidin (actin-green) and propidium iodide (nuclei-red). FIG. 4B is a micrograph of preconfluent neonatal foreskin fibroblast cells that have been treated with 5 μl/10 ml Formula I(n). After 24 hours of treatment, cells were stained with phalloidin (actin-green) and propidium iodide (nuclei-red). FIG. 4C is a micrograph of preconfluent neonatal foreskin fibroblast cells that have been treated with 10 μl/10 ml Formula I(n). After 24 hours of treatment, cells were stained with phalloidin (actin-green) and propidium iodide (nuclei-red). FIG. 4D is a micrograph of confluent MDA-MB231 breast cancer cells that have not been treated with Formula I(n). After 24 hours of mock treatment, cells were stained with phalloidin (actin-green) and propidium iodide (nuclei-red). FIG. 4E is a micrograph of confluent MDA-MB231 breast cancer cells that have been treated with 5 μl/10 ml Formula I(n). After 24 hours of treatment, cells were stained with phalloidin (actin-green) and propidium iodide (nuclei-red). FIG. 4F is a micrograph of confluent MDA-MB231 breast cancer cells that have been treated with 10 μl/10 ml Formula I(n). After 24 hours of treatment, cells were stained with phalloidin (actin-green) and propidium iodide (nuclei-red). FIG. 4G is a micrograph of preconfluent MDA-MB231 breast cancer cells that have not been treated with Formula I(n). After 24 hours of mock treatment, cells were stained with phalloidin (actin-green) and propidium iodide (nuclei-red). FIG. 4H is a micrograph of preconfluent MDA-MB231 breast cancer cells that have been treated with 5 μl/10 ml Formula I(n). After 24 hours of treatment, cells were stained with phalloidin (actin-green) and propidium iodide (nuclei-red).
Formula I(n) was next analyzed for its ability to induce cytoskeletal reorganization. […]

[8] = system: focal adhesion kinase (FAK) [Tyr576] phosphorylation; assay: western blot of FAK[Tyr576] phosphorylation in Hs578T cells; assay type: cell-based, human; settings: 5 or 10 μl Formula I(n)/10 ml media, 3 days
Excerpt: FIG. 5 is a western blot showing the inhibition of the phosphorylation of focal adhesion kinase (FAK) in Hs578T cells treated with Formula I(n). Antibodies that detect the FAK protein that has been phosphorylated on pTyr576 were used at a dilution of 1:1000 (rabbit anti-FAK[pTyr576] from Biosource Inc., Camarillo, Calif., USA).
It has previously been shown that reduced migratory ability of various invasive breast tumor cells, including MDA-MB231, Hs578T (Payne S L, Fogelgren B, Hess A R, Seftor E A, Fong S F T, Csiszar K, Hendrix M J C, and Kirschmann D A. Lysyl oxidase regulates breast cancer cell migration and adhesion through a hydrogen peroxide-mediated mechanism. Cancer Res. 65:11429-36, 2005), and astrocytoma cells (Laczko R, Szauter K M, Jansen M K, Hollosi P, Muranyi M, Molnar J, Fong K S K, Hinek A, Csiszar K. Active lysyl oxidase (LOX) correlates with FAK/paxillin activation and migration in invasive astrocytes. Neuropathol Appl Neurobiol. 33:631-43, 2007) was due to reduced activation of Focal Adhesion Kinase (FAK) and diminished SRC and/or Paxillin signaling. In order to determine the status of FAK activation in Formula I(n) treated cells, the phosphorylation status of FAK[Tyr576] in Hs578T cells treated with 5 and 10 μl Formula I(n) was analyzed.
In these experiments, Hs578T cells were cultured in standard DMEM, 1× Antibiotics and 10% FBS. […]

[9] = system: silkworm larvae, B. mori; settings: concentrations in the diet up to 300 μg/g; cited from earlier work

In the case of `C=CCCCCCCCCCCCc1ccco1` [2-(trideca-12-enyl)furan], the growth of bacteria [1] is given as “inhibited growth” and the growth of bacteria [2] is given as “inhibited growth”.
With `CCCCC/C=C\C/C=C\CCCCCCCc1ccco1` [Formula I(n)] the tumor cell migration [3] was “significantly inhibited”, the tumor cell morphology ([4]; 5 or 10 μl Formula I(n)) was “elongated, spindle shaped” and the “cell densities (tumor cell proliferation)” value ([4]; both Formula I(n) concentrations, both stages of cell confluency) was “significantly reduced”. For the same molecule, the tumor cell migration [5] was “significantly inhibited”, the “migration of fibroblasts (distance between the migrating lips)” value ([6]; 5 or 10 μl/10 ml Formula I(n), 12 and 24 hours after scratching, serum free media) was “reduced migration” and the “migration of fibroblasts (distance between the migrating lips)” value ([6]; higher Formula I(n) concentration (10 μl/10 ml)) was “almost completely diminished”. For the same molecule, the filopodia [7] was “numerous filopodia”, the “staining at adhesion sites” value [7] was “reduced staining” and the “staining intensity of the actin cytoskeleton” value [7] was “concentration dependent increase”. For the same molecule, the “FAK[Tyr576] phosphorylation” value [8] was “concentration dependent decrease”.
For `CCCCC/C=C\C/C=C\CCCCCCCc1ccco1` [2-(8Z, 11Z-heptadecadienyl)furan, 2-(8Z,11Z-heptadecadienyl)furan], the “activity against silkworm larvae” value [9] is given as “no activity”.
